Laboratory results taken from PMC12040169 (PLOS Biology, 2025).

Assay: in vitro
Conditions: human, hela cells, % viability

**Q.** For `Cc1ccc(C2(C)CC(C)(C)N(C(=O)CSc3nnc[nH]3)c3ccccc32)cc1` (stereo not shown) [CBK073918], which viability at 28.5 h, 10 µM is on record?
**A.** 89.2%

**Q.** Which viability at 28.5 h, 10 µM does the source give for `CN(C)[C@@H]1CN(C(=O)C2CC2)C[C@H]1c1cn(C)c2ccccc12` [CBK282681] here?
**A.** 110%

**Q.** With `CN(C)S(=O)(=O)c1ccc(NC(=O)CCC(=O)O)cc1` [CBK267156] as the molecule, how does the viability at 28.5 h, 10 µM read?
**A.** 91.6%

**Q.** With `CCOc1ccc(NC(=O)C2CC=CCC2C(=O)O)cc1` (stereo not shown) [CBK274682] as the molecule, how does the viability at 28.5 h, 10 µM read?
**A.** 110%

**Q.** Which viability at 28.5 h, 10 µM does the source give for `O=C(O)CC1C(=O)NCCN1Cc1ccccc1Cl` (stereo not shown) [CBK270114] here?
**A.** 93%

**Q.** For `CC(C)(C)C(=O)N1CCC2(CC1)Nc1cccnc1-n1cccc12` [CBK284507], which viability at 28.5 h, 10 µM is on record?
**A.** 95.6%

**Q.** With `Cc1ccc2nsnc2c1NC(=O)CN1CCN(c2ccc(F)cc2)CC1` [CBK269231] as the molecule, how does the viability at 28.5 h, 10 µM read?
**A.** 98.9%

**Q.** For `Cn1c(=O)n(-c2cccc(Cl)c2)c(=O)n1C` [CBK116498], which viability at 28.5 h, 10 µM is on record?
**A.** 82.2%

**Q.** Which viability at 28.5 h, 10 µM does the source give for `COc1ccc(-c2nnc(SCC(=O)Nc3ccccc3[N+](=O)[O-])n2C)cc1` [CBK265609] here?
**A.** 103%

**Q.** Which viability at 28.5 h, 10 µM does the source give for `COc1ccc(Cn2nc3nnc(-c4ccccc4)c(-c4ccccc4)n3c2=O)cc1` [CBK286180] here?
**A.** 88.8%

**Q.** Which viability at 28.5 h, 10 µM does the source give for `NC(=O)CCN1CCCC2(CCN(C(=O)c3ccoc3)C2)C1` (stereo not shown) [CBK132816] here?
**A.** 96.9%

**Q.** Which viability at 28.5 h, 10 µM does the source give for `CNC(=O)C1(Cc2ccc(-c3cccc(C)c3)cc2)CCN(C(=O)CC(C)C)CC1` [CBK285787] here?
**A.** 116%

**Q.** For `O=C(O)c1ccccc1-c1ccc(-c2cc(C(=O)O)c3cc(Cl)ccc3n2)o1` [CBK268699], which viability at 28.5 h, 10 µM is on record?
**A.** 91.1%

**Q.** Which viability at 28.5 h, 10 µM does the source give for `S=c1n(CN2CCC(c3ccccc3)CC2)nc(Cc2ccccc2)n1-c1ccccc1` [CBK265037] here?
**A.** 95.2%

**Q.** Which viability at 28.5 h, 10 µM does the source give for `O=C(O)c1cc(-c2ccccc2)oc1CSCCO` [CBK286559] here?
**A.** 92.3%

**Q.** With `O=C(c1ccc(NS(=O)(=O)c2ccccc2)cc1)N1CCN(Cc2ccc3c(c2)OCO3)CC1` [CBK267957] as the molecule, how does the viability at 28.5 h, 10 µM read?
**A.** 102%

**Q.** With `COc1ccc(Oc2cncc(OC3CCN(CCc4ccc(F)cc4)C3)n2)cc1OC` (stereo not shown) [CBK084409] as the molecule, how does the viability at 28.5 h, 10 µM read?
**A.** 94.1%

**Q.** With `CC(C)(C)OC(=O)NC1CCC(NCc2c[nH]c(-c3ccccc3)n2)CC1` (stereo not shown) [CBK056692] as the molecule, how does the viability at 28.5 h, 10 µM read?
**A.** 80.9%

**Q.** Which viability at 28.5 h, 10 µM does the source give for `O=S(=O)(Cc1ccccc1Cl)NCCN1CCOCC1` [CBK269171] here?
**A.** 102%

**Q.** With `OC1(c2cccnc2)C2CCCC1CN(Cc1ccc(F)cc1)C2` (stereo not shown) [CBK285204] as the molecule, how does the viability at 28.5 h, 10 µM read?
**A.** 89.8%

**Q.** For `CC(C)(C)c1ccc(S(=O)(=O)N2CCCC[C@H]2COC(=O)c2nccnc2C(=O)O)cc1` [CBK200065], which viability at 28.5 h, 10 µM is on record?
**A.** 91.6%

**Q.** Which viability at 28.5 h, 10 µM does the source give for `COc1cc(NC(=O)c2ccc3c(c2)C(=O)N(Cc2ccccc2)C3=O)c(C(=O)O)cc1OC` [CBK266544] here?
**A.** 106%

**Q.** Which viability at 28.5 h, 10 µM does the source give for `CC(C)[C@@H](CO)Nc1nc(-c2cc(C(F)(F)F)cc(C(F)(F)F)c2)cn2ccnc12` [CBK037496] here?
**A.** 84.9%

**Q.** With `CSCCC(=O)N1CCC2(CCN(Cc3ccccc3)C2)C1` (stereo not shown) [CBK136838] as the molecule, how does the viability at 28.5 h, 10 µM read?
**A.** 93.8%

**Q.** Which viability at 28.5 h, 10 µM does the source give for `O=C(CCN1CCN(CCO)CC1)Nc1ccc(F)c(F)c1` [CBK264316] here?
**A.** 100%

**Q.** Which viability at 28.5 h, 10 µM does the source give for `O=[N+]([O-])c1ccc(/C=C/c2nn3c(Cn4cnc5ccccc54)nnc3s2)cc1` [CBK268273] here?
**A.** 104%

**Q.** With `Cc1ccnn1CCNC(=O)CCc1ccc(Cl)cc1` [CBK283182] as the molecule, how does the viability at 28.5 h, 10 µM read?
**A.** 91.1%

**Q.** With `CCc1[nH]nc2c1C1(CN3CCC1CC3)C(C#N)=C(N)O2` (stereo not shown) [CBK267454] as the molecule, how does the viability at 28.5 h, 10 µM read?
**A.** 101%

**Q.** Which viability at 28.5 h, 10 µM does the source give for `COc1ccc(CCNC(=O)c2ccccc2NS(=O)(=O)c2cc(C(=O)O)ccc2OC)cc1` [CBK297506] here?
**A.** 90.8%

**Q.** For `OC(COc1ccc2c(c1)OCO2)CN1CCN(C(c2ccccc2)c2ccccc2)CC1` (stereo not shown) [CBK074854C], which viability at 28.5 h, 10 µM is on record?
**A.** 87.5%

**Q.** Which viability at 28.5 h, 10 µM does the source give for `Cc1cccc(NC(=O)C(CC(=O)O)NCc2ccccc2)c1` (stereo not shown) [CBK266821] here?
**A.** 87.3%

**Q.** Which viability at 28.5 h, 10 µM does the source give for `CCN(CC)CCN1CCN(c2cc(-c3ccc4c(c3)OCO4)ncn2)CC1` [CBK037694] here?
**A.** 86%

**Q.** For `S=C(NCCc1ccccn1)NCCN1CCOCC1` [CBK268296], which viability at 28.5 h, 10 µM is on record?
**A.** 101%

**Q.** For `O=C(O)CSc1nnc(-c2ccc(F)cc2)o1` [CBK068115], which viability at 28.5 h, 10 µM is on record?
**A.** 104%

**Q.** Which viability at 28.5 h, 10 µM does the source give for `Cc1cnc(NC(=O)Cc2ccc(F)cc2)s1` [CBK288249] here?
**A.** 99.9%

**Q.** With `O=C(NCC1CCCN1)c1cc(C(=O)c2ccc(Cl)cc2Cl)c[nH]1` (stereo not shown) [CBK115923C] as the molecule, how does the viability at 28.5 h, 10 µM read?
**A.** 86.1%

**Q.** Which viability at 28.5 h, 10 µM does the source give for `NC(CCCCNC(=O)c1ccccc1)C(=O)O` (stereo not shown) [CBK261087] here?
**A.** 97%

**Q.** With `CC(C)C(NC(=O)CN1CSCC1=O)c1ccc(C(C)(C)C)cc1` (stereo not shown) [CBK297899] as the molecule, how does the viability at 28.5 h, 10 µM read?
**A.** 88.6%

**Q.** With `CN(C)CCCN1CCCC2(CCN(C(=O)c3cc(F)c(F)cc3F)C2)C1` (stereo not shown) [CBK132005] as the molecule, how does the viability at 28.5 h, 10 µM read?
**A.** 96.5%

**Q.** With `O=C(CSc1ncc(C(=O)O)n1-c1ccc(F)cc1)NCCc1ccc(F)cc1` [CBK297513] as the molecule, how does the viability at 28.5 h, 10 µM read?
**A.** 93.3%

**Q.** With `O=C(C1CCC1)N1CCC(n2c(=O)[nH]c3ccccc32)CC1` [CBK149709] as the molecule, how does the viability at 28.5 h, 10 µM read?
**A.** 108%

**Q.** For `NC(=O)CN1CC2(CCN(CCS(=O)(=O)c3ccccc3)CC2)c2ccccc21` [CBK126786], which viability at 28.5 h, 10 µM is on record?
**A.** 103%

**Q.** For `Cc1cc(C)nc(NC(=O)C(C)Oc2ccc(Cl)cc2Cl)n1` (stereo not shown) [CBK265600], which viability at 28.5 h, 10 µM is on record?
**A.** 90.4%
